Reference: patent US8685408B2 (priority 2006, dated 2014)
Like-named read-outs stand apart in the source and are kept apart here.

Key:
EG7 tumor [1] = system: EG7 tumor; parameters: species or system C57BL6 mice; conditions: mouse, in vivo, sc
dendritic cells = system: dendritic cells; parameters: species or system mice; conditions: mouse, in vivo
EG7 tumor [2] = system: EG7 tumor; parameters: species or system C57BL6 mice; conditions: mouse, in vivo, sc; remark: listed apart in the source
Gb3 = system: Gb3; parameters: species or system mice; conditions: mouse, in vivo
[3] = system: anti-OVA257-264 CD8^+T cells; parameters: species or system C57BL/6 mice; conditions: mouse, in vivo

Question: With CCCCCCCCCCCCCCCCCCCCCCCCCC(=O)N[C@@H](CC[C@H]1O[C@H](CO)[C@H](O)[C@H](O)[C@H]1O)[C@H](O)[C@H](O)CCCCCCCCCCCCCC [C-αGalCer] as the molecule, how does the “growth of EG7 tumor” value (EG7 tumor [1]) read?
Answer: will not control the growth of the tumor

Question: With Poly (I:C) as the molecule, how does the “costimulatory molecules (CD86) and MHC class II / activation of dendritic cells” value (dendritic cells) read?
Answer: also activated dendritic cells

Question: Which results are given for CCCCCCCCCCCCCCCCCCCCCCCCCC(=O)N[C@@H](CO[C@H]1O[C@H](CO)[C@H](O)[C@H](O)[C@H]1O)[C@H](O)[C@H](O)CCCCCCCCCCCCCC [α-GalCer, (2S,3S,4S)-1-O-(α-D-galactopyranosyloxy)-2-hexacosanoylamino-3,4-octadecanediol]?
Answer: growth of EG7 tumor (EG7 tumor [2]): did not control the growth of the tumor; costimulatory molecules (CD86) and MHC class II / activation of dendritic cells (dendritic cells): rapid increase; membrane expression of Gb3 on dendritic and B cells (Gb3): did not regulate

B1: OVA (protein, UniProt P01012 2-386, looked up)
Ovalbumin: GSIGAASMEFCFDVFKELKVHHANENIFYCPIAIMSALAMVYLGAKDSTRTQINKVVRFDKLPGFGDSIEAQCGTSVNVHSSLRDILNQITKPNDVYSFSLASRLYAEERYPILPEYLQCVKELYRGGLEPINFQTAADQARELINSWVESQTNGIIRNVLQPSSVDSQTAMVLVNAIVFKGLWEKAFKDEDTQAMPFRVTEQESKPVQMMYQIGLFRVASMASEKMKILELPFASGTMSMLVLLPDEVSGLEQLESIINFEKLTEWTSSNVMEERKIKVYLPRMKMEEKYNLTSVLMAMGITDVFSSSANLSGISSAESLKISQAVHAAHAEINEAGREVVGSAEAGVDAASVSEEFRADHPFLFCIKHIATNAVLFFGRCVSP
Question: For B1, which “induction of anti-OVA257-264 CD8^+T cells” value [3] is on record?
Answer: no significant induction
